Data from patent US20130053392A1, “CARBONIC ANHYDRASE INHIBITORS” (priority 2010, published 2013).
pKi: −log10 of the molar value. “Also recorded” adds a separate entry of the source.

Columns and labels:
[1] = prior art compound (Winum et al); cited from earlier work
[2] = tested on: 94/1 CA IX knock down cells (HT-29); test: FC11-489A bis binding, plate reader, 94/1 cells; format: cell-based, human; conditions: 100 μM, normoxia, hypoxia, reoxygenation
Excerpt: (§1) Plates were placed in a BMG microplate reader FLUOstare Omega using following protocol: Fluorescence intensity—Well scanning using 5×5 scan matrix in a diameter of 10 mm with 10 flashes per scan point, a gain of 1000 and 355 nm-460 nm filter settings.

[3] = tested on: EV/2 CA IX expressing cells (HT-29); test: FC11-489A bis binding, flow cytometer, EV/2 cells; conditions: 100 μM, FACS
Method: (§6) Single suspensions were obtained by passing cells through 70 μm nylon cell strainers (BD Biosciences). Mean fluorescence intensity was analyzed using a FACSort flow cytometer (BD Biosciences) using FIT-C filter settings.

[4] = tested on: 94/1 CA IX knock down cells (HT-29); test: FC11-489A bis binding, flow cytometer, 94/1 cells; conditions: 100 μM, normoxia, hypoxia, reoxygenation, FACS
Method: as §6

[5] = tested on: EV/2 CA IX expressing cells (HT-29); test: FC11-489A bis binding, fluorescence staining, EV/2 cells; format: cell-based, human; conditions: 100 μM
Method: (§2) Cells were mounted onto slides with Fluorescence Mounting Medium (DAKO) and analyzed with a Zeiss Axioskop fluorescence microscope using FIT-C filter settings.
(§3) Each staining picture was loaded into Image) analysis software (Image J 1.38x NIH USA, http://rsb.info.nih.gov/ij/Java 1.5.0—17), converted to 8-bit images, thresholded to exclude areas without cells and all remaining pixels were analyzed for their intensity.
(§4) For each oxygen condition, for at least 350 pixels fluorescence intensity was analyzed.

[6] = tested on: EV/2 CA IX expressing cells (HT-29); test: FC11-489A bis binding, plate reader, EV/2 cells; format: cell-based, human; conditions: 100 μM
Excerpt: as §1

hCA IX = molecular target: T1, hCA IX (Homo sapiens, UniProt Q16790); test: CA-catalysed CO2 hydration stopped-flow inhibition assay, hCA IX; format: biochemical; conditions: Table 3, stopped flow assay
T1 construct: made in house
Method: Typically, CA inhibition is measured by assaying for CA-catalysed CO2 hydration activity using an appropriate indicator dye. […] Stopped flow spectrophotometry may used to measure the rate of hydration activity.
The uncatalyzed rates were determined in the same manner and subtracted from the total observed rates. Stock solutions of inhibitor (0.1 mM) were prepared in distilled-deionized water and dilutions up to 0.01 nM were done thereafter with distilled-deionized water Inhibitor and enzyme solutions were preincubated together for 15 min at room temperature in order to allow for the formation of the E-I complex. The inhibition constants were obtained by non-linear least-squares methods using PRISM 3, as reported earlier,^1,2,3 and represent the mean from at least three different determinations. All enzymes were recombinant ones, obtained as reported earlier.^2,3 • 1. Khalifah, R. G. The carbon dioxide hydration activity of carbonic anhydrase. I. Stop-flow kinetic studies on the native human isoenzymes B and C. […] Alterio, V.; Hilvo, M.; Di Fiore, A.; Supuran, C. T.; Pan, P.; Parkkila, S.; Scaloni, A.; Pastorek, J.; Pastorekova, S.; Pedone, C.; Scozzafava, A.; Monti, S. M.; De Simone, G. Crystal structure of the extracellular catalytic domain of the tumor-associated human carbonic anhydrase IX. […] T. Carbonic anhydrase inhibitors: X-ray and molecular modeling study for the interaction of a fluorescent antitumor sulfonamide with isozyme II and IX. J. Am. Chem. Soc. […] J. Am. Chem. Soc.

[7] = tested on: 94/1 CA IX knock down cells (HT-29); test: FC11-489A bis binding, fluorescence staining, 94/1 cells; format: cell-based, human; conditions: 100 μM, normoxia, hypoxia, reoxygenation, listed as FC11-489A bis
Method: as §2, §3, §4

[8] = tested on: HT29 colon carcinoma cells; test: Mouse xenograft model, HT29 colon carcinoma; format: in vivo, mice
[9] = tested on: EV/2 CA IX expressing cells (HT-29); test: Clonogenic survival after irradiation, EV/2 cells; format: cell-based, human; conditions: S4 33 μM 23 h
Method: (§5) Cells were incubated with S4 1 h after the start of the anoxic/normoxic exposure, during 23 h. […] After incubation, cells were irradiated on ice (MCN 225 industrial X-ray tube (Philips, Eindhoven, NL) at 225 kV and 10 mA under the respective oxygen concentrations using different doses (Normoxia: 0, 2, 4, 6, and 8 Gy; Anoxia: 0, 4, 8, 12 and 16 Gy). After irradiation, cells were washed, trypsinized and plated for the clonogenic survival assay and incubated under standard culture conditions until colonies were formed (14 days). Colonies were fixed and stained with 4% methylene blue in 70% ethanol. Plating efficiency was determined by counting colonies consisting of >50 cells and correcting for the number of cells seeded.

[10] = Proliferation/viability assays; format: cell-based; conditions: 33 μM
Method: CA IX inhibition, either using a genetic approach (knock down) or pharmacological (S4) results in a sensitization to irradiation. Genetically or pharmacologically, this sensitization occurs to a similar extent. Pharmacological testing was performed at 33 μM, a concentration selected based on no-toxicity under normoxic conditions based on proliferation/viability assays.

FaDU head and neck cells = test: FaDU spheroid clonogenicity assay with doxorubicin or radiation; format: cell-based; conditions: listed as S4
Method: These studies were undertaken using tumour cells grown into 3-D spheroid cultures that have a natural oxygen gradient. Spheroids of FaDU head and neck cells were generated and treated for 24 h with S4 or vehicle alone; doxorubicin alone or in combination with S4; and S4 or vehicle plus 10 Gy radiotherapy given at the end of the 24 h exposure. Spheroids were treated with trypsin to generate single cell suspensions and plated at various dilutions. Clonogenecity was then recorded per spheroid.
Spheroids were generated by the “liquid overlay technique”. […] The coating prevents the cells from forming monolayers and gives rise of spheroid growth.
The spheroids were grown in a CO2-incubator for 5-7 days. Thereafter, the spheroids were collected and grown in a spinner flask for an additional 5-7 days until they reached a diameter of ˜500-750 μm (10%-0.1% O2 gradient in spheroid).
Spheroids were pooled for the following treatments: • 1. Vehicle for 24 hours • 2. […] Doxorubicin (10 μM) for 24 h • 4. Vehicle for 24 hours followed by 10 Gy radiotherapy • 5.
Directly thereafter, spheroids were digested to single cells using trypsin/EDTA and the cells seeded at a range of concentration in culture plates (clonogenicity assay).
After about a week the cells were stained with methylene blue and the number of colonies counted.

MDA231-EGFP cells = test: Orthotopic MDA231-EGFP mammary fat pad tumour and lung clonogen (metastasis) model; format: in vivo, mice; conditions: 10 mg/kg, 5 days on, 2 days off
Method: 16 mice were implanted with 0.1 ml of a 5×10^7/ml suspension of MDA231-EGFP cells into the mammary fat pad of anaesthetized mice. The cells were prepared in a 1:1 mix of Matrigel: serum-free RMPI.
Mouse condition was monitored daily and tumour volumes recorded at least 3× per week.
Once tumours reached approximately 100 mm^3, they were randomised in to the following treatment groups:
Group 1: 8 mice implanted with MDA231-EGFP cells received vehicle administered in a “5 days on, 2 days” off schedule (ie Mon-Fri dosing each week).
Group 2: 8 mice implanted with MDA231-EGFP cells received CA-IX inhibitor S4 administered at 10 mg/kg dose in a “5 days on, 2 days” off schedule (ie Mon-Fri dosing each week).
Treatment was continued until primary tumours reached a designated endpoint volume of approx 1000 mm^3.
Mouse health and condition was monitored throughout and weights recorded up to 3 times per week.
Before sacrifice Pimonidazole at 0.2 ml of 10 mg/ml solution i/p (2 h before) and 0.1 ml of a 6 mg/ml Hoechst solution (iv) (1 minute before) were administered. Tumour and lungs were rapidly removed for processing.
Clonogens were assessed in lungs using a clonogenic assay. About a quarter of the total lung tissue was taken and weighed. […] Clones were then stained with bromophenol blue and counted, calculating the number per mg of tissue following correction for the dilution.

[11] = tested on: 94/1 CA IX knock down cells (HT-29); test: Clonogenic survival after irradiation, 94/1 cells; format: cell-based, human
Method: as §5

NS(=O)(=O)Oc1ccc(Cl)cc1 [4-chlorophenyl sulphamate]
stability in solution [1]: relatively unstable in solution

NS(=O)(=O)Oc1ccc(NC(=S)Nc2ccc(-c3c4ccc(=O)cc-4oc4cc(O)ccc34)c(C(=O)O)c2)cc1 [Compound 20, 2-(3-Hydroxy-6-oxo-6H-xanthen-9-yl)-5-(3-(4-(sulfamoyloxy)phenyl)thioureido)benzoic acid]
binding at CA IX knock down cells [2]: No significant binding
binding upon reoxygenation versus hypoxic conditions ([3]; 24 h hypoxia then 1 h air): dramatically reduced
binding (mean fluorescence intensity), hypoxia versus normoxia ([3]; hypoxia 0.2% 24 h, FIG. 13): significant higher binding
binding at CA IX knock down cells [4]: No significant binding
binding upon reoxygenation ([5]; 24 h hypoxia then 1 h air, listed as FC11-489A bis): reduced upon reoxygenation to levels similar as normoxia exposure; also recorded: dramatically reduced
binding (immunofluorescence), hypoxia versus normoxia ([5]; hypoxia 0.2% 24 h, FIG. 14/15, listed as FC11-489A bis): significant higher binding
binding upon reoxygenation versus hypoxic conditions ([6]; 24 h hypoxia then 1 h air): dramatically reduced
binding (fluorescence intensity), hypoxia versus normoxia ([6]; hypoxia 0.2% 24 h, FIG. 12): significant higher binding
pKi (hCA IX): 7.85
binding at CA IX knock down cells [7]: lower for all experimental conditions compared to the EV/2 cells; also recorded: No significant binding

Cc1cc(C)cc(NC(=O)Nc2ccc(OS(N)(=O)=O)cc2)c1 [Compound 3p, 4-[(3,5-dimethylphenyl)ureido]phenyl sulfamate]
volume of the tumour versus control ([8]; HT29 xenograft, FIG. 3): significant reduction in the volume of the tumour
reduction of the tumor growth ([8]; highest dosage of CA inhibitor, HT29 xenograft in nude CD1 mice): 30%
sensitization to irradiation, 24 h anoxia ([9]; anoxia, 8, 12 and 16 Gy, FIG. 18): a sensitization to irradiation was observed
sensitization to irradiation, normoxic exposure ([9]; normoxia, 0-8 Gy): no sensitization to irradiation was demonstrated
toxicity under normoxic conditions [10]: no-toxicity
clonogenic survival, combination with radiation (FaDU head and neck cells; S4 33 μM 24 h plus 10 Gy radiotherapy): reduced colongenic survival compared with either agent alone; also recorded: significant reduction in colony formation per spheroid
clonogenic survival, combination with doxorubicin (FaDU head and neck cells; S4 33 μM plus doxorubicin 10 μM, 24 h): reduced colongenic survival compared with either agent alone; also recorded: significant reduction in colony formation per spheroid
clonogenicity per spheroid, inhibitor alone (FaDU head and neck cells; S4 alone (33 μM), 24 h, FIG. 9): little effect on growth of cells isolated from the spheroids; also recorded: little effect on cell growth
number of metastatic MDA-231 clonogens (colonies per gram of lung tissue) versus vehicle (MDA231-EGFP cells; FIG. 5): significantly fewer metastatic clonogens
tumour volume against time versus vehicle (MDA231-EGFP cells; orthotopic MDA-231 tumours, FIG. 4): little or no effect on the growth of the orthotopic MDA-231 tumours
sensitization to irradiation, normoxic exposure ([11]; S4 33 μM 23 h, normoxia): no sensitization to irradiation was demonstrated
effect on radiosensitivity of knock down cells ([11]; S4 33 μM pretreatment): had no effect on the radiosensitivity
